Data reported in patent US10980892B2, “Methods for the treatment of leptomeningeal carcinomatosis” (Angiochem Inc., priority 2015, dated 2021).

Tests used:
LRP receptor [1] = experiment: Inhibition of brain uptake of an Angiopep conjugate by LRP ligands
From the text: (§1) The methods of the invention may be especially useful in treating cancers having cells that express low density lipoprotein-related protein (LRP) receptor. The LRP receptor is expressed on the surface of cells, and is capable of binding to various substrates including aprotinin. The polypeptides described herein were designed based on the consensus kunitz-domain sequences that act as LRP receptor ligands (see, e.g., PCT Publication No. WO 2004/060403). Uptake of the conjugates including Angiopep-1 or Angiopep-2 is inhibited by LRP ligands, thus indicating involvement of LRP in this process.

LRP receptor [2] = target: T1, LRP receptor (Homo sapiens, UniProt Q07954); experiment: Inhibition of uptake of Angiopep conjugates into cells; format: cell-based; details: Angiopep-2 10 or 100 μM
T1 construct: The LRP receptor is expressed on the surface of cells; endogenous in cells
T1 sequence (Q07954 20-4544): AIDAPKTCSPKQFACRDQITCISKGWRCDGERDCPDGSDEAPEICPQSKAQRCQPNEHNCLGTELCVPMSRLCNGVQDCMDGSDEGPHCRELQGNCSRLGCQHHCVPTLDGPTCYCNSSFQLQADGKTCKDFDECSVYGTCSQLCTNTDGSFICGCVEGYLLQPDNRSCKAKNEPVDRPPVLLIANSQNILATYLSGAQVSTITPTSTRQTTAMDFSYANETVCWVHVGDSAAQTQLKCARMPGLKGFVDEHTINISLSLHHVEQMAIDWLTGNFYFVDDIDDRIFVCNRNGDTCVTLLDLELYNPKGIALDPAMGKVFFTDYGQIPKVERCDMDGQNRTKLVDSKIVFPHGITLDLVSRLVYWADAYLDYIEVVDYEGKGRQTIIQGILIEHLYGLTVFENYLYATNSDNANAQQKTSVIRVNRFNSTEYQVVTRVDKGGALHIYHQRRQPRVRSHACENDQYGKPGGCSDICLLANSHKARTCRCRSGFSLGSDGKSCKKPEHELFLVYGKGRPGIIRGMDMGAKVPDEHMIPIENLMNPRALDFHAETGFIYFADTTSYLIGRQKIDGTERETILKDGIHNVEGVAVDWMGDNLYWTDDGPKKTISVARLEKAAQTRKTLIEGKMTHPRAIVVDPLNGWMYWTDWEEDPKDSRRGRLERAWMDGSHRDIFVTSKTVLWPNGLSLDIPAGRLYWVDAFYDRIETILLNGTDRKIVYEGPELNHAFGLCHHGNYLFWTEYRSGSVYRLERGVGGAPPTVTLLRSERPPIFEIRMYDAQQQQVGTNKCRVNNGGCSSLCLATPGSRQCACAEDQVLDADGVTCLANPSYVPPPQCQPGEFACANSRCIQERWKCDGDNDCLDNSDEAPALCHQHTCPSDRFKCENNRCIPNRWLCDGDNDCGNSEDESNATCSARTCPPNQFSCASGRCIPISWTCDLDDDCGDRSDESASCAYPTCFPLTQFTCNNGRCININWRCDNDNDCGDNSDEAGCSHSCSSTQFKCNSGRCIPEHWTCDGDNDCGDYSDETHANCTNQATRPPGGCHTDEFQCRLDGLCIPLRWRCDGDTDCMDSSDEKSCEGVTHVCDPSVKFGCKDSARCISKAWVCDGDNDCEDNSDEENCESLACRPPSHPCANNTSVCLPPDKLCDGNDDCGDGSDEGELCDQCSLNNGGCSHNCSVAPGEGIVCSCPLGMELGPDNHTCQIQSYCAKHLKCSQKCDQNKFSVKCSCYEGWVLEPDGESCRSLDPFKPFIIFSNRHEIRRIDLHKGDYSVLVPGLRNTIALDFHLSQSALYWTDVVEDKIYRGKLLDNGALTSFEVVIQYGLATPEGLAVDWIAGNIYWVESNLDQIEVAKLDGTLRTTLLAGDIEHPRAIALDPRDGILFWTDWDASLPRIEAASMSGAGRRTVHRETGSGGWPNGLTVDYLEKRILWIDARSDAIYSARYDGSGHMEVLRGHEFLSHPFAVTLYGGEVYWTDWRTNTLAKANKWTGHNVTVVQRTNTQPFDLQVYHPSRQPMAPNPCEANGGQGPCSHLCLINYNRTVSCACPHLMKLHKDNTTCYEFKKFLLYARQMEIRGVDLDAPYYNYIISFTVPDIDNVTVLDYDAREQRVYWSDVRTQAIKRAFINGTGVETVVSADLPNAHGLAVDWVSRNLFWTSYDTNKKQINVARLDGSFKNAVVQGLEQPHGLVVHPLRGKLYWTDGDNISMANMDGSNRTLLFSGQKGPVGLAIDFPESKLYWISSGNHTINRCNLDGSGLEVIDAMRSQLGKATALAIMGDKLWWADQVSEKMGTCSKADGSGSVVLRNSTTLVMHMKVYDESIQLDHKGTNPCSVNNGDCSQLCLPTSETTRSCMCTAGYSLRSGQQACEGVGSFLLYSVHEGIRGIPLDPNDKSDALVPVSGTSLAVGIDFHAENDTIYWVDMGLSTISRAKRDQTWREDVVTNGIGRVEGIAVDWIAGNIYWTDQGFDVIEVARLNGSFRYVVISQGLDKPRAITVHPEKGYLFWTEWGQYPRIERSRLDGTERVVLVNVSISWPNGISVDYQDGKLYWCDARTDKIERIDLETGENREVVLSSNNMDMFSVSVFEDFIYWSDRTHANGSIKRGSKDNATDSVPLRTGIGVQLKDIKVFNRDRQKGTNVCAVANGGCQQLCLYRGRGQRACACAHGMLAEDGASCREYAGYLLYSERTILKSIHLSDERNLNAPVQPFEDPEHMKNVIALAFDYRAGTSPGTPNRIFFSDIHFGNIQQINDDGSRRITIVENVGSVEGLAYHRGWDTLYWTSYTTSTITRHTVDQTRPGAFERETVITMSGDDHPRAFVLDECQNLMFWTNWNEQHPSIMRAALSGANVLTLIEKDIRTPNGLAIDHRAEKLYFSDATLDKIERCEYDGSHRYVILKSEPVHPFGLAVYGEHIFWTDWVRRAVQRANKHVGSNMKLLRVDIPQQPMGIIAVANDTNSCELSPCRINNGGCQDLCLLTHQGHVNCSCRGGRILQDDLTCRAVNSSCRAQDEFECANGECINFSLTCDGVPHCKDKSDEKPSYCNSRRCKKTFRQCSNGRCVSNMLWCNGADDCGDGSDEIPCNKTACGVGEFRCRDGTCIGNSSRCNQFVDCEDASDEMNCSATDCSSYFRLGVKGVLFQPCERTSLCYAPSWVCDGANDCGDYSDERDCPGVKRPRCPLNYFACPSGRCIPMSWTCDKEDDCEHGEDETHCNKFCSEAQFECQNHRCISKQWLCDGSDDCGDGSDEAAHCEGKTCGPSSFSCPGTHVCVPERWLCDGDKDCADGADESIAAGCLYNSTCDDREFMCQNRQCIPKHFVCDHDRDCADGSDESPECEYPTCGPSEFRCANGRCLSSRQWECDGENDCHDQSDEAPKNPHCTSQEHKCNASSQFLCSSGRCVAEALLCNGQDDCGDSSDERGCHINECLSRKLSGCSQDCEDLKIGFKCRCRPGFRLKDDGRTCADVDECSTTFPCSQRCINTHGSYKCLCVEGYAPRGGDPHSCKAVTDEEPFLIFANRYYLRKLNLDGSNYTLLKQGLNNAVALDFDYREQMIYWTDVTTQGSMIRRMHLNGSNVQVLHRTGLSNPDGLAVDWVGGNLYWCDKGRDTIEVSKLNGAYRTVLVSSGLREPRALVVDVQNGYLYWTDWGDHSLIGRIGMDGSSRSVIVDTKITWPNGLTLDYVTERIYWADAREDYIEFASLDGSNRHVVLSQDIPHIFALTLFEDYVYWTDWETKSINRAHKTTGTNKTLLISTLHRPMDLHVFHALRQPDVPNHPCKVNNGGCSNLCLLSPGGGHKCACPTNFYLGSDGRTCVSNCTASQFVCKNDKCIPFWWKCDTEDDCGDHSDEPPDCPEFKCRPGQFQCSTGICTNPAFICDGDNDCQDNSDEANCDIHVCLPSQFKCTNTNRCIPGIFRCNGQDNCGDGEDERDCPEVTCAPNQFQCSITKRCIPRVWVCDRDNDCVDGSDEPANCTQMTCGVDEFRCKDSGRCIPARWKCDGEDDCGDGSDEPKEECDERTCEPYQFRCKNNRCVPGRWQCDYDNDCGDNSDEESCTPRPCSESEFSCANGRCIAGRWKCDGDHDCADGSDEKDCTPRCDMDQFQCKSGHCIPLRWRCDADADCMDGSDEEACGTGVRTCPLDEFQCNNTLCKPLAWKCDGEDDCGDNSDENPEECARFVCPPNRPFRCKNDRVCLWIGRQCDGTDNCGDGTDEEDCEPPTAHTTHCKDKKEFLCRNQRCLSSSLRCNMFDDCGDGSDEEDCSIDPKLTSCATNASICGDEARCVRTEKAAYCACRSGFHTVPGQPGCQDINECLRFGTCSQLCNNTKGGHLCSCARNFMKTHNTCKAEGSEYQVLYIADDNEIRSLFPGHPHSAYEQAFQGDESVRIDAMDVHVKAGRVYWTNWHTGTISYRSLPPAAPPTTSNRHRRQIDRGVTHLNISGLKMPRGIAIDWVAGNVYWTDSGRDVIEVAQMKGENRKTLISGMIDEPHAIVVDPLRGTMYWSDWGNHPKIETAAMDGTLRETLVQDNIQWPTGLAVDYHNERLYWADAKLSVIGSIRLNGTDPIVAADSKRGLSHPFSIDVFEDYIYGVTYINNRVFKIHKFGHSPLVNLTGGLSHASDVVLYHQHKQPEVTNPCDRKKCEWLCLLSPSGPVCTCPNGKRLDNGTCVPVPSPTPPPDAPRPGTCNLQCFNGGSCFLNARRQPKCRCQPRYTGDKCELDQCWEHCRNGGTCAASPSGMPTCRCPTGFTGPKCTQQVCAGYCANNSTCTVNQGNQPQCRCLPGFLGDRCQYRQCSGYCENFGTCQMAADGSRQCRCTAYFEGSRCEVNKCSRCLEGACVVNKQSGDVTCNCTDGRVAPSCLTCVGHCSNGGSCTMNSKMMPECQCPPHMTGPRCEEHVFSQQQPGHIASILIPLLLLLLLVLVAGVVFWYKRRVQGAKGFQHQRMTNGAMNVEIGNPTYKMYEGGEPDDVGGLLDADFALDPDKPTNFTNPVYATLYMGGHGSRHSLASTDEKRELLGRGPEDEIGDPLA
From the text: as §1

[3] = tested on: leptomeningeal carcinomatosis; experiment: Kaplan-Meier estimates of survival for subjects with LC; format: in vivo, human; details: compared to historical median overall survival of 3-6 months following aggressive treatment
From the text: The Kaplan-Meier method was used to estimate the overall survival of LC subjects treated with ANG1005.

[4] = tested on: leptomeningeal carcinomatosis; experiment: Treatment of individual LC subjects with ANG1005 (Subjects 2, 3, 4, 8); format: in vivo, human
From the text: Subject 2 presented at the time of treatment with ANG1005 with an active tumor extending from the deep portion of the surgical cavity to the right tentorial surface and along the lateral right temporal occipital dural surface. Subject 2 started treatment with ANG1005 in October 2014 and received 7 cycles (once every three weeks). Treatment was terminated due to clinical disease progression.
Subject 3 presented at the time of treatment with ANG1005 with numerous (>10) brain metastases all of which had increased in size despite prior treatment. Extensive scattered osseous metastatic disease in head/neck. After presenting with a numb chin (left trigeminal cranial nerve deficits), Subject 3 was also found to have leptomeningeal disease. Subject 3 started treatment with ANG1005 in September 2014 and received 5 cycles (once every three weeks). Treatment was terminated due to adverse event (pneumonia).
Subject 4 is a person diagnosed in October 2011 with HER2+/ER−/PgR− ductal carcinoma in situ. In November 2012, Subject 4 was diagnosed with brain metastases, and in March 2015 the brain metastases relapsed with leptomeningeal carcinomatosis. Subject 4 previously received several courses of therapy including carboplatin from October to November 2011, denosumab from November 2011 to November 2012, paclitaxel from December 2011 to March 2012, WBRT, transtuzumab from May 2012 to November 2012, and kadcyla from April 2013 to December 2014. Subject 4 presented at the time of treatment with ANG1005 with parenchymal metastases present in the cerebellum and widespread LC of the cerebellum and cerebral hemispheres. In addition, Subject 4 presented with mild ventricular enlargement with compression upon the fourth ventricle and cutflow tracts. Subject 4 started treatment with ANG1005 in March 2015 and received 8 cycles (once every three weeks). Subject withdrew from treatment due to low performance scores.
Subject 8 started treatment with ANG1005 in April 2015 and received 2 cycles (once every three weeks). Subject 8 terminated from treatment in July 2015 due to clinical progression.

[5] = tested on: leptomeningeal carcinomatosis (LC); experiment: Treatment of LC in breast cancer subjects, CNS RECIST brain parenchymal tumor response; format: in vivo, human; details: 600 mg/m^2 iv tri-weekly
Procedure: Twenty-eight subjects diagnosed with LC were administered 600 mg/m^2 of ANG1005 intravenously on a tri-weekly schedule. The subjects received between one and nine cycles of ANG1005.
The results of the treatment of the subjects according to CNS Response Evaluation Criteria in Solid Tumors (RECIST) based on brain parenchymal tumor response is shown in Table 2.

Q: RAP: LRP ligand was tested. Which “Effect on brain uptake of an Angiopep conjugate” value (LRP receptor [1]; RAP 200 nM) did it give?
A: capable of reducing brain uptake

Q: For TFFYGGSRGKRNNFKTEEY [Angiopep-2], which “Effect on uptake of the conjugates into cells” value (LRP receptor [2]) is on record?
A: able to reduce uptake

Q: With `CC(=O)O[C@H]1C(=O)[C@@]2(C)[C@H]([C@H](OC(=O)c3ccccc3)[C@]3(O)C[C@H](OC(=O)C(OC(=O)CCC(=O)NCCCC[C@H](NN[C@@H](Cc4ccccc4)C(=O)C(=O)C(CC(N)=O)NC(=O)[C@H](CC(N)=O)NC(=O)[C@H](CCCNC(=N)N)NC(=O)[C@H](CCCCNC(=O)CCC(=O)O[C@@H](C(=O)O[C@H]4C[C@@]5(O)[C@@H](OC(=O)c6ccccc6)[C@@H]6[C@]7(OC(C)=O)CO[C@@H]7C[C@H](O)[C@@]6(C)C(=O)[C@H](OC(C)=O)C(=C4C)C5(C)C)[C@@H](NC(=O)c4ccccc4)c4ccccc4)NNCC(=O)C(=O)[C@H](CCCNC(=N)N)NC(=O)[C@H](CO)NC(=O)CNC(=O)CNC(=O)C(Cc4ccc(O)cc4)NC(=O)[C@H](Cc4ccccc4)NC(=O)C(Cc4ccccc4)NCC(=O)[C@H](NC(=O)CCC(=O)O[C@@H](C(=O)O[C@H]4C[C@@]5(O)[C@@H](OC(=O)c6ccccc6)[C@@H]6[C@]7(OC(C)=O)CO[C@@H]7C[C@H](O)[C@@]6(C)C(=O)[C@H](OC(C)=O)C(=C4C)C5(C)C)[C@@H](NC(=O)c4ccccc4)c4ccccc4)C(C)O)C(=O)N[C@H](C(=O)NC(CCC(=O)O)C(=O)N[C@@H](CCC(=O)O)C(=O)NC(C=O)Cc4ccc(O)cc4)[C@@H](C)O)[C@@H](NC(=O)c4ccccc4)c4ccccc4)C(C)=C1C3(C)C)[C@]1(OC(C)=O)CO[C@@H]1C[C@@H]2O` (stereo partly shown) [ANG1005] as the molecule, how does the “Median overall survival (Kaplan-Meier estimate)” value [3] read?
A: increase median overall survival

Q: What about the “Response of leptomeningeal carcinomatosis” value ([4]; Subject 2, HER2+/ER−/PgR+, 7 cycles once every three weeks, dural lesion no longer apparent, leptomeningeal nodule decreasing in size) of the same molecule?
A: responded

Q: What about the “Response of leptomeningeal carcinomatosis” value ([4]; Subject 3, HER2+/ER−/PgR−, 5 cycles once every three weeks) of the same molecule?
A: improved both radiographically and clinically

Q: What about the “Adverse event causing treatment termination” value ([4]; Subject 3, after 5 cycles once every three weeks) of the same molecule?
A: pneumonia

Q: And the “Response of leptomeningeal carcinomatosis” value ([4]; Subject 4, HER2+/ER−/PgR−, 8 cycles once every three weeks, diminished nodular leptomeningeal enhancement, decreased leptomeningeal tumor burden)?
A: responded

Q: And the “Response of leptomeningeal carcinomatosis” value ([4]; Subject 8, HER2+/ER+/PgR−, 2 cycles once every three weeks, improvement in extensive LC in the cerebellum)?
A: responded

Q: And the “Partial Response (PR), number of patients” value ([5]; All Patients (n = 23))?
A: 5

Q: And the “Partial Response (PR), percent of patients” value ([5]; All Patients (n = 23))?
A: (22%)

Q: And the “Patient Benefit (PR + SD), number of patients” value ([5]; All Patients (n = 23))?
A: 17

Q: What about the “Progressive Disease, number of patients” value ([5]; All Patients (n = 23)) of the same molecule?
A: 6

Q: And the “Progressive Disease, percent of patients” value ([5]; All Patients (n = 23))?
A: (26%)

Q: What about the “Stable Disease (SD), number of patients” value ([5]; All Patients (n = 23)) of the same molecule?
A: 12

Q: And the “Stable Disease (SD), percent of patients” value ([5]; All Patients (n = 23))?
A: (52%)

Q: And the “Partial Response (PR), number of patients” value ([5]; HER2+ (n = 15))?
A: 4

Q: What about the “Partial Response (PR), percent of patients” value ([5]; HER2+ (n = 15)) of the same molecule?
A: (27%)

Q: And the “Patient Benefit (PR + SD), number of patients” value ([5]; HER2+ (n = 15))?
A: 12

Q: And the “Progressive Disease, number of patients” value ([5]; HER2+ (n = 15))?
A: 3

Q: What about the “Progressive Disease, percent of patients” value ([5]; HER2+ (n = 15)) of the same molecule?
A: (20%)

Q: And the “Stable Disease (SD), number of patients” value ([5]; HER2+ (n = 15))?
A: 8

Q: What about the “Stable Disease (SD), percent of patients” value ([5]; HER2+ (n = 15)) of the same molecule?
A: (53%)

Q: And the “Partial Response (PR), number of patients” value ([5]; HER2− (n = 8))?
A: 1

Q: What about the “Partial Response (PR), percent of patients” value ([5]; HER2− (n = 8)) of the same molecule?
A: (12.5%)

Q: And the “Patient Benefit (PR + SD), number of patients” value ([5]; HER2− (n = 8))?
A: 5

Q: And the “Patient Benefit (PR + SD), percent of patients” value ([5]; HER2− (n = 8))?
A: (62.5%)

Q: And the “Progressive Disease, number of patients” value ([5]; HER2− (n = 8))?
A: 3

Q: And the “Progressive Disease, percent of patients” value ([5]; HER2− (n = 8))?
A: (37.5%)

Q: And the “Stable Disease (SD), number of patients” value ([5]; HER2− (n = 8))?
A: 4

Q: What about the “Stable Disease (SD), percent of patients” value ([5]; HER2− (n = 8)) of the same molecule?
A: (50%)

Q: Which “Effect on brain uptake of an Angiopep conjugate” value (LRP receptor [1]; aprotinin 10 μM) does the source give for aprotinin here?
A: capable of reducing brain uptake
